ChEMBL document CHEMBL1145498, “A systematic interaction map of validated kinase inhibitors with Ser/Thr kinases” (Proc Natl Acad Sci U S A, 2007)

Columns and labels:
[1] = molecular target: Serine/threonine-protein kinase VRK2 (Homo sapiens) (UniProt Q86Y07)
[2] = molecular target: Serine/threonine-protein kinase 16 (Homo sapiens) (UniProt O75716)
[3] = molecular target: STE20-like serine/threonine-protein kinase (Homo sapiens) (UniProt Q9H2G2)
[4] = molecular target: Serine/threonine-protein kinase pim-1 (Homo sapiens) (UniProt P11309)
[5] = molecular target: Tyrosine-protein kinase JAK1 (Homo sapiens) (UniProt P23458)
Tyrosine-protein kinase JAK1 (Homo sapiens), sequence (P23458 whole entry): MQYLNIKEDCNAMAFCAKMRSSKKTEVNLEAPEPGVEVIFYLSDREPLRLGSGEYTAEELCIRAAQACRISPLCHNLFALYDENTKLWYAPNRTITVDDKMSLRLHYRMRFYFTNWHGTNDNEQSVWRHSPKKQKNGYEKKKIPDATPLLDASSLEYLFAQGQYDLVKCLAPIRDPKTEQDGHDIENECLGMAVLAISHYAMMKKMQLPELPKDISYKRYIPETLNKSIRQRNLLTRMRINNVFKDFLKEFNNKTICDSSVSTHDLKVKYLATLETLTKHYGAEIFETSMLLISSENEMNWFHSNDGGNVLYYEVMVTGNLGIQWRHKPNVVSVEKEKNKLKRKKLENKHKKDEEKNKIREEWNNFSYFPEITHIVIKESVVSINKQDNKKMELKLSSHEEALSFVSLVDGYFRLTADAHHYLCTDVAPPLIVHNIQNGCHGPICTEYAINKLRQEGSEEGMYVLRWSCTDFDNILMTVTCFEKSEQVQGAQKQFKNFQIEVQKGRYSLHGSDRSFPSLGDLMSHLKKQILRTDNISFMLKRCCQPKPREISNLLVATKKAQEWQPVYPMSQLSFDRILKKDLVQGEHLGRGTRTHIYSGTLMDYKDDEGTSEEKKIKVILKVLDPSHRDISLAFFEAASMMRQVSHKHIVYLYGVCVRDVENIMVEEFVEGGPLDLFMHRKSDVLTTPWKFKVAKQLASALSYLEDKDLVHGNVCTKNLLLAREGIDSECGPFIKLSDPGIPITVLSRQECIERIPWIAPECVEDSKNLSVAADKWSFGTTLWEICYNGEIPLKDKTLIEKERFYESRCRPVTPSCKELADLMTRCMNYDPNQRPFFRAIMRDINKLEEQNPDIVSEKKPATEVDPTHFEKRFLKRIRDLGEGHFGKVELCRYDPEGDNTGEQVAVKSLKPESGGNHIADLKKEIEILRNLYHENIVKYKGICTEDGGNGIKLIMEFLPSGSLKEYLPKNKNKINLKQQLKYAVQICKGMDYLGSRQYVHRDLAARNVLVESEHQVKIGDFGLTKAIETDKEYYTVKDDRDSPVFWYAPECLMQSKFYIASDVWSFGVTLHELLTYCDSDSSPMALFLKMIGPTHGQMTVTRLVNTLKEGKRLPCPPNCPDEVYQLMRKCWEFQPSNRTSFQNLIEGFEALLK

[6] = molecular target: T1, Serine/threonine-protein kinase VRK3 (Homo sapiens) (UniProt Q8IV63)
T1 sequence (whole entry): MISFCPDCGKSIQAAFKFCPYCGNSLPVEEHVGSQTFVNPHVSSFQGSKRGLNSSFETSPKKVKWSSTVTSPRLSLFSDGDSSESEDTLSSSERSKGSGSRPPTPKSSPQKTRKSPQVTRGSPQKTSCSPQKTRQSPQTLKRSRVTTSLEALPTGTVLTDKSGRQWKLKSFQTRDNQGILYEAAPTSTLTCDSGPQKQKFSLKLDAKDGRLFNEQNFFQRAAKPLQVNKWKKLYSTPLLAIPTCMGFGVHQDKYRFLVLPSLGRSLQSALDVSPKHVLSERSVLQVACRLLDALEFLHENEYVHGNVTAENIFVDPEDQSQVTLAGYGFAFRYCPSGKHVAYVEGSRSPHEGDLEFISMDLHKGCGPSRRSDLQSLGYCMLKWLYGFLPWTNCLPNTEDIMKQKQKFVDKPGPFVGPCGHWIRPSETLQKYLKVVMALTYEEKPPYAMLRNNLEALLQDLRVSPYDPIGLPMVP

[7] = molecular target: Cyclin-dependent kinase-like 1 (Homo sapiens) (UniProt Q00532)
Cyclin-dependent kinase-like 1 (Homo sapiens), sequence (Q00532 whole entry): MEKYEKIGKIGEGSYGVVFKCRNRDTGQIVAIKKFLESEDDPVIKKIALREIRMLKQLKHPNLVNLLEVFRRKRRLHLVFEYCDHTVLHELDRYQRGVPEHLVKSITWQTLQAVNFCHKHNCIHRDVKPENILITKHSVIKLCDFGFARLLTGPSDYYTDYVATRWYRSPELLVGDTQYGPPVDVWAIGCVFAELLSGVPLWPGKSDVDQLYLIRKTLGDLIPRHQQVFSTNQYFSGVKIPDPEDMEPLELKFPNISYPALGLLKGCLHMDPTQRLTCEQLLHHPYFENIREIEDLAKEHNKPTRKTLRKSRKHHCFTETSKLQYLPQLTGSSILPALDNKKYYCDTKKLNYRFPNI

[8] = molecular target: T2, Serine/threonine-protein kinase Nek2 (Homo sapiens) (UniProt P51955)
T2 sequence (whole entry): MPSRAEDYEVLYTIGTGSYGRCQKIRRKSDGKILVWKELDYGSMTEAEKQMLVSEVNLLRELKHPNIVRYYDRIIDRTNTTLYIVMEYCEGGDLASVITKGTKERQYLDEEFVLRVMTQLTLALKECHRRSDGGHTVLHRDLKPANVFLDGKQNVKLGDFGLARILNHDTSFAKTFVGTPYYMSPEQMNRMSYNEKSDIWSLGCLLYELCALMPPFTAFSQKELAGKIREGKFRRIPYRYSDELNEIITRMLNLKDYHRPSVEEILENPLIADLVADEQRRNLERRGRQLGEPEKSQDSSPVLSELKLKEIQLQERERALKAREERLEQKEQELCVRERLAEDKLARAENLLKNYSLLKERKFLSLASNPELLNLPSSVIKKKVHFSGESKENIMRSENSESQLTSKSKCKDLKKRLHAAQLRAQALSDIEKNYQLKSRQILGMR

[9] = molecular target: T3, Serine/threonine-protein kinase 4 (Homo sapiens) (UniProt Q13043)
T3 sequence (whole entry): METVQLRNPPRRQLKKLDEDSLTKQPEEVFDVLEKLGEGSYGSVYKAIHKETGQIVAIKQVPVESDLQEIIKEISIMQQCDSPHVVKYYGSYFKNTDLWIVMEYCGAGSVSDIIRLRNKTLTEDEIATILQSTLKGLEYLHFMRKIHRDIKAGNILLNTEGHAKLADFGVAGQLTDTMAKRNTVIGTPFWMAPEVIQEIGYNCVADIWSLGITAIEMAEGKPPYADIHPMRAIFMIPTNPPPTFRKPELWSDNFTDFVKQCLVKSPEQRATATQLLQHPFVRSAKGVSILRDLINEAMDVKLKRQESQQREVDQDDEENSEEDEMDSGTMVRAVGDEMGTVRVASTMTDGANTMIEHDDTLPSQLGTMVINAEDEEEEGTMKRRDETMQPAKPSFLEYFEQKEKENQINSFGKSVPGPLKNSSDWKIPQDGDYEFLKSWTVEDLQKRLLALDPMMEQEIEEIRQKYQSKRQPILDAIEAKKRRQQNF

[10] = molecular target: Serine/threonine-protein kinase pim-3 (Homo sapiens) (UniProt Q86V86)
[11] = molecular target: Calcium/calmodulin-dependent protein kinase type 1G (Homo sapiens) (UniProt Q96NX5)
[12] = molecular target: Serine/threonine-protein kinase PLK1 (Homo sapiens) (UniProt P53350)
Serine/threonine-protein kinase PLK1 (Homo sapiens), sequence (P53350 whole entry): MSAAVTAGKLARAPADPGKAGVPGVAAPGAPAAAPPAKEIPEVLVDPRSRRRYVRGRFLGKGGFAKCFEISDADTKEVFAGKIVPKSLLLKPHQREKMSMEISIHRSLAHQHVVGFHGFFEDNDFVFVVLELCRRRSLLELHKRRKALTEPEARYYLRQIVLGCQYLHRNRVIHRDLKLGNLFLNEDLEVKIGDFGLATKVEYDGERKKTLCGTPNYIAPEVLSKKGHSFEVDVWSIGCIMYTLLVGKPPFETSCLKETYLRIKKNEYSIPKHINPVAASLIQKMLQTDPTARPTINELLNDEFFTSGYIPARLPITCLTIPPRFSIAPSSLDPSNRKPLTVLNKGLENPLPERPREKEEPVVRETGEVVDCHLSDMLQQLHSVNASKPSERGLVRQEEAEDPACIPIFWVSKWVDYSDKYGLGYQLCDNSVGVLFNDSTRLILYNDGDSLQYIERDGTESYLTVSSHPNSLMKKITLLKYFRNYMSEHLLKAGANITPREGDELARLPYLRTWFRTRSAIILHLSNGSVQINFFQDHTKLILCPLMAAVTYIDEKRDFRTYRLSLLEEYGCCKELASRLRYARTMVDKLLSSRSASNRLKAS

[13] = molecular target: Serine/threonine-protein kinase 26 (Homo sapiens) (UniProt Q9P289)
[14] = molecular target: Ribosomal protein S6 kinase alpha-3 (Homo sapiens) (UniProt P51812)
[15] = molecular target: Serine/threonine-protein kinase 10 (Homo sapiens) (UniProt O94804)
[16] = molecular target: Mitogen-activated protein kinase 11 (Homo sapiens, UniProt Q15759)
Mitogen-activated protein kinase 11, sequence (Q15759 whole entry): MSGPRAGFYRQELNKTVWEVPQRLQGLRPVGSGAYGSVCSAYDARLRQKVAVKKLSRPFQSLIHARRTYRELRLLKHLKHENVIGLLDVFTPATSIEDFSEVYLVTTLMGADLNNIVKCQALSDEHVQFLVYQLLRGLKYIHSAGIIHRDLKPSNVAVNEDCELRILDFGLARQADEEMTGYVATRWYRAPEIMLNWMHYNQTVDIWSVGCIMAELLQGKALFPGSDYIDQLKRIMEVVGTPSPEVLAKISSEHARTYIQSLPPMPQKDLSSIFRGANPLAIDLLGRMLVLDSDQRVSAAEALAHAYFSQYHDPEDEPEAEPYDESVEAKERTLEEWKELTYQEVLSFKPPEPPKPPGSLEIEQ

[17] = molecular target: T4, Calcium/calmodulin-dependent protein kinase type IV (Homo sapiens) (UniProt Q16566)
T4 sequence (whole entry): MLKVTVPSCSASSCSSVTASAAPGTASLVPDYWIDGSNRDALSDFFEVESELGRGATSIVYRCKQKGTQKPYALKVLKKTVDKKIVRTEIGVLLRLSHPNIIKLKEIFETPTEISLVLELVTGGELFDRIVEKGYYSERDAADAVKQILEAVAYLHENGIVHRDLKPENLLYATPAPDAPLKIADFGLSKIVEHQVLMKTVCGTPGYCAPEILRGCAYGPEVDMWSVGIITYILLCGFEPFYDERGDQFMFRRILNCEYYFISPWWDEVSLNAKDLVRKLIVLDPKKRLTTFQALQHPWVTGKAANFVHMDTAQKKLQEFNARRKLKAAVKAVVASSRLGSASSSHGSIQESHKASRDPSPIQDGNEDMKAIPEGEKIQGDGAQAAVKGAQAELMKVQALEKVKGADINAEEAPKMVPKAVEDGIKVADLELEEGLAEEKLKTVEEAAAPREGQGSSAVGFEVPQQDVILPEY

[18] = molecular target: Serine/threonine-protein kinase PAK 4 (Homo sapiens) (UniProt O96013)
[19] = molecular target: Cyclin-dependent kinase 16 (Homo sapiens) (UniProt Q00536)
Cyclin-dependent kinase 16 (Homo sapiens), sequence (Q00536 whole entry): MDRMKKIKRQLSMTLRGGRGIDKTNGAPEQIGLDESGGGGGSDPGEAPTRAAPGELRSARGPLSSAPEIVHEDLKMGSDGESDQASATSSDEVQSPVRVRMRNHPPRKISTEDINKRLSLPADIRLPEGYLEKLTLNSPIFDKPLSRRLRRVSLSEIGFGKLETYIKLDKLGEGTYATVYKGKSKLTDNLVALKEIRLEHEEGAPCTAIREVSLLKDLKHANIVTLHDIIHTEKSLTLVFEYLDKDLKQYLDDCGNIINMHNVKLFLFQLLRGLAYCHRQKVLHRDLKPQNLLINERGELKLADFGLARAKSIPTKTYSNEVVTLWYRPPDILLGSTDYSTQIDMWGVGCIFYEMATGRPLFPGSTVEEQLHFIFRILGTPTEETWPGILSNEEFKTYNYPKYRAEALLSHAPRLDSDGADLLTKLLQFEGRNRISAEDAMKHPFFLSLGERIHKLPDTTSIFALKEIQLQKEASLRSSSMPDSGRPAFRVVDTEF

[20] = molecular target: Serine/threonine-protein kinase pim-2 (Homo sapiens, UniProt Q9P1W9)

STE20-like serine/threonine-protein kinase (Homo sapiens), sequence (Q9H2G2 whole entry, looked up): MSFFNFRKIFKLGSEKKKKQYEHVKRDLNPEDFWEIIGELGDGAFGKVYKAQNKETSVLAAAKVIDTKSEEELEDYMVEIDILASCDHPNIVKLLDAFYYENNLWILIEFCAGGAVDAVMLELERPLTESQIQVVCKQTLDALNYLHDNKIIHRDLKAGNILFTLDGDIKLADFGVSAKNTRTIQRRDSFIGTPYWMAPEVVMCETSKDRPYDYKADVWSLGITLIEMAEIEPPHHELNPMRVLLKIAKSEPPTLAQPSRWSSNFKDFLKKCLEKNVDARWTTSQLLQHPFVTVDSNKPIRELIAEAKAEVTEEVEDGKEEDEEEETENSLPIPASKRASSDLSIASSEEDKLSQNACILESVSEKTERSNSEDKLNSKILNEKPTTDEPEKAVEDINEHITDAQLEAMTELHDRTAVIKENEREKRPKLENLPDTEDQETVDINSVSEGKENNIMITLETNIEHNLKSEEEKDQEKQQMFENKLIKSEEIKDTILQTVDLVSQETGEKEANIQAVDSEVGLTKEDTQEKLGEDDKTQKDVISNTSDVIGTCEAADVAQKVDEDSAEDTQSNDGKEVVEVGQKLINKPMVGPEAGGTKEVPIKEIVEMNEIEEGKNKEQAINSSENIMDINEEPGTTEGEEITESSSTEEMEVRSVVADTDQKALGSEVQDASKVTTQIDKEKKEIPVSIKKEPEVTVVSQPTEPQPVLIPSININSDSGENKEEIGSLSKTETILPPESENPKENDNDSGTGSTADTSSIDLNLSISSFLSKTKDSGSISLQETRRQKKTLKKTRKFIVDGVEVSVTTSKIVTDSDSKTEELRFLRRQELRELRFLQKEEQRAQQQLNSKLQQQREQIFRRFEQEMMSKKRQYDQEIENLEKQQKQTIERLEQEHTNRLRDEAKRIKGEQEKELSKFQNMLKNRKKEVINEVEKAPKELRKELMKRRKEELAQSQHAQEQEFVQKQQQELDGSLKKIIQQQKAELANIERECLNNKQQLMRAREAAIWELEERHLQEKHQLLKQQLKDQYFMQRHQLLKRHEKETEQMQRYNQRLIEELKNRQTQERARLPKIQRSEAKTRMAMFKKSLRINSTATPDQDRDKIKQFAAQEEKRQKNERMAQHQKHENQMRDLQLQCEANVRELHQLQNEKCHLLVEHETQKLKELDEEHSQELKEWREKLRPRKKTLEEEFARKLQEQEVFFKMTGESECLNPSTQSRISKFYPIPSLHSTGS
Serine/threonine-protein kinase 16 (Homo sapiens), sequence (O75716 whole entry): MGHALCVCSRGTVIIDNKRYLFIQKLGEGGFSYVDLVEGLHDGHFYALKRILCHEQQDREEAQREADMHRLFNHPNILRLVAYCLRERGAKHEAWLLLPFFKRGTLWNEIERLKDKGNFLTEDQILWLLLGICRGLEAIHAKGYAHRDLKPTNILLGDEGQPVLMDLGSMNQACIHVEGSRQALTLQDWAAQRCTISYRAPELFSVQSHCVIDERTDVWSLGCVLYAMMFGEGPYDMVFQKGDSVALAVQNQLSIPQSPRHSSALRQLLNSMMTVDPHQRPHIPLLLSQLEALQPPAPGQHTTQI

Row | Structure (SMILES) | ΔTm [1] | ΔTm [2] | ΔTm [3] | ΔTm [4] | ΔTm [5] | ΔTm [6] | ΔTm [7] | ΔTm [8] | ΔTm [9] | ΔTm [10] | ΔTm [11] | ΔTm [12] | ΔTm [13] | ΔTm [14] | ΔTm [15] | ΔTm [16] | ΔTm [17] | ΔTm [18] | ΔTm [19] | ΔTm [20]
1 | Cn1cc(C2=C(c3cn(CCCSC(=N)N)c4ccccc34)C(=O)NC2=O)c2ccccc21 | 0.9 °C | 3.9 °C | 10.6 °C | 9.7 °C | 0 °C | 0.8 °C | 2.2 °C | 0.4 °C | 7.4 °C | 7.7 °C | 3.1 °C | 0.3 °C | 2.3 °C | 2.1 °C | 7.5 °C | 2 °C | 3.2 °C | 3.4 °C | 5.3 °C | 5.6 °C
2 | COC1=C2C[C@@H](C)C[C@H](OC)[C@H](O)[C@@H](C)/C=C(\C)[C@H](OC(N)=O)[C@@H](OC)/C=C\C=C(/C)C(=O)NC(=CC1=O)C2=O | 0.2 °C | 0.4 °C | 1.7 °C | -0.2 °C | -0.5 °C | -0.7 °C | -0.5 °C | 0.5 °C | 0.1 °C | 0.5 °C | 0.2 °C | 0.1 °C | -0.4 °C | -0.3 °C | 0.5 °C | -0.2 °C | 0 °C | -0.2 °C | -0.4 °C | -0.1 °C
3 | CCOc1cc(/C=C(\C#N)C(N)=O)cc(CSc2ccccc2)c1O | 0.1 °C | 1 °C | 0.5 °C | -0.1 °C | 4.3 °C | -0.6 °C | -0.1 °C | 0.3 °C | 0.4 °C | 1.5 °C | 0 °C | 1.9 °C | -0.3 °C | 0.1 °C | 1.1 °C | -0.3 °C | 0.1 °C | -0.5 °C | -0.5 °C | 0.1 °C
4 | O=c1ccc2ccc(O)c(O)c2o1 [DAPHNETIN] | -0.1 °C | 0.1 °C | 0.1 °C | 0.2 °C | 0.2 °C | -0.1 °C | 0.3 °C | 0.7 °C | 0 °C | 0.8 °C | 0 °C | -0.1 °C | -0.4 °C | 0.1 °C | -0.5 °C | -0.7 °C | -0.1 °C | 0 °C | -0.6 °C | 0.7 °C
5 | CC(C)n1cnc2c(NCc3ccccc3O)nc(NCCCO)nc21 | 0.6 °C | 1.2 °C | 0 °C | -1.3 °C | 0.8 °C | 0.1 °C | 0.1 °C | 0.3 °C | 0.3 °C | 0.4 °C | 0.1 °C | 0.5 °C | 0.4 °C | 0.7 °C | 0.5 °C | 0.1 °C | 0.1 °C | 0.5 °C | -0.2 °C | 0.1 °C
6 | CC(C)n1cnc2c(NCc3ccccc3)nc(NCCCO)nc21 | 1.2 °C | 0.6 °C | 0.4 °C | 0.1 °C | 0.4 °C | -0.3 °C | -0.1 °C | 0.9 °C | -0.3 °C | 1 °C | 0.2 °C | 1.8 °C | -0.3 °C | 2.5 °C | -0.4 °C | 0.1 °C | 0.4 °C | -0.6 °C | -0.5 °C | 0.2 °C
7 | O=C1Nc2ccc(I)cc2/C1=C1/Nc2ccccc2/C1=N\O | 4.3 °C | 1.9 °C | 3.7 °C | 1.7 °C | 8.3 °C | 0.4 °C | 5.4 °C | 1.4 °C | 9.5 °C | 6.3 °C | 0.5 °C | -0.7 °C | 4.5 °C | 3.3 °C | 0 °C | 1.3 °C | 2.6 °C | 2.3 °C | 5.6 °C | -0.5 °C

Next, values leading:

Row | ΔTm [1] | ΔTm [2] | ΔTm [3] | ΔTm [4] | ΔTm [5] | ΔTm [6] | ΔTm [7] | ΔTm [8] | ΔTm [9] | ΔTm [10] | ΔTm [11] | ΔTm [12] | ΔTm [13] | ΔTm [14] | ΔTm [15] | ΔTm [16] | ΔTm [17] | ΔTm [18] | ΔTm [19] | ΔTm [20] | Structure (SMILES)
8 | 0.4 °C | 0.4 °C | 6.9 °C | 0.7 °C | 2.7 °C | 0.3 °C | 0.1 °C | 0.6 °C | 1.5 °C | 1.6 °C | 0 °C | -0.3 °C | 1.2 °C | 0.1 °C | 7.4 °C | 1.8 °C | 0.1 °C | 0.2 °C | -0.9 °C | 0.9 °C | COc1cc2ncnc(Nc3cccc(Br)c3)c2cc1OC
9 | 0.7 °C | 0.5 °C | 1.2 °C | 0.8 °C | 0.1 °C | 0.8 °C | 1.2 °C | 2.1 °C | 2.6 °C | 0.3 °C | 2.8 °C | 0.4 °C | 0.3 °C | 0.2 °C | -0.1 °C | 0.1 °C | 1.2 °C | 1.2 °C | -0.1 °C | 0.7 °C | CC(C)c1cc(/C=C(\C#N)C(=O)NCCCc2ccccc2)cc(C(C)C)c1O
10 | 0.7 °C | 1.3 °C | 4.2 °C | 4.9 °C | -1.5 °C | 0.6 °C | 0.5 °C | 1 °C | 4.9 °C | 3.4 °C | 0.3 °C | -0.2 °C | 0 °C | 0.8 °C | 4.1 °C | -0.3 °C | -0.2 °C | 1.5 °C | 3 °C | 1.7 °C | CN(C)CC1CCn2c(c(C3=C(c4c[nH]c5ccccc45)C(=O)NC3=O)c3ccccc32)C1 (stereo not given)
